Reference: PubChem BioAssay AID1963429 (Molecular Pharmacology Branch, DTP, NCI, 2024)

Test system: 126254-015-R-J1-PDC complex spheroid growth, % test/control
Experiment: Anticancer human tumor 126254-015-R-J1-PDC patient-derived soft tissue sarcoma cell line growth inhibition [Asc]
Settings: for IC50: curve of first compound; for viability, T/C: stronger effect = lower value
Summary of the method: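 Concentration series start at each agent's clinical Cmax, or at 10 microM when none is established, and drop in half-log steps; agents are applied alone or together to complex spheroids built with HUVEC and hMSC.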

[1] = second compound 0.1 µM, first compound 0.0316 µM
[2] = second compound 0.1 µM, first compound 0.1 µM
[3] = second compound 0.1 µM, first compound 0.316 µM
[4] = second compound 0.1 µM, first compound 1 µM
[5] = second compound 0.316 µM, first compound 0.0316 µM
[6] = second compound 0.316 µM, first compound 0.1 µM
[7] = second compound 0.316 µM, first compound 0.316 µM
[8] = second compound 0.316 µM, first compound 1 µM
[9] = second compound 1 µM, first compound 0.0316 µM
[10] = second compound 1 µM, first compound 0.1 µM
[11] = second compound 1 µM, first compound 0.316 µM
[12] = second compound 1 µM, first compound 1 µM
[13] = second compound 3.16 µM, first compound 0.0316 µM
[14] = second compound 3.16 µM, first compound 0.1 µM
[15] = second compound 3.16 µM, first compound 0.316 µM
[16] = second compound 3.16 µM, first compound 1 µM
[17] = second compound 10 µM, first compound 0.0316 µM
[18] = second compound 10 µM, first compound 0.1 µM
[19] = second compound 10 µM, first compound 0.316 µM
[20] = second compound 10 µM, first compound 1 µM
[21] = second compound 0.1 µM, first compound 0.00316 µM
[22] = second compound 0.1 µM, first compound 0.01 µM
[23] = second compound 0.316 µM, first compound 0.00316 µM
[24] = second compound 0.316 µM, first compound 0.01 µM
[25] = second compound 1 µM, first compound 0.00316 µM
[26] = second compound 1 µM, first compound 0.01 µM
[27] = second compound 3.16 µM, first compound 0.00316 µM
[28] = second compound 3.16 µM, first compound 0.01 µM
[29] = second compound 10 µM, first compound 0.00316 µM
[30] = second compound 10 µM, first compound 0.01 µM
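Note: spheroids exposed to compound for seven days.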
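Throughout, for viability, T/C: 100% = DMSO vehicle control wells.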

With C=CC(=O)N1CCN(c2nc(=O)n(-c3c(C)ccnc3C(C)C)c3nc(-c4c(O)cccc4F)c(F)cc23)C(C)C1 (stereo not given) + Cc1c(S(C)(=O)=O)c(-c2cc(F)cc(N3CCN(c4ccc(NS(=O)(=O)c5ccc(NC(CCN6CCC(C(=O)OCCCP(=O)(O)O)CC6)CSc6ccccc6)c(S(=O)(=O)C(F)(F)F)c5)cc4)CC3)c2)c(-c2ccc(Cl)cc2)n1C(C)C the IC50 (second compound 0.1 µM) was over 10000 nM, the IC50 (second compound 0.316 µM) was over 10000 nM and the IC50 (second compound 1 µM) was over 10000 nM. For the same molecule, the IC50 (second compound 3.16 µM) was over 10000 nM, the IC50 (second compound 10 µM) was over 10000 nM and the viability, T/C [1] was 89.8%. It also gave a viability, T/C [2] of 89.4%, a viability, T/C [3] of 95.8% and a viability, T/C [4] of 103%. The viability, T/C (second compound 0.1 µM, first compound 3.16 µM) was 101%, the viability, T/C (second compound 0.1 µM, first compound 10 µM) was 76.3% and the viability, T/C [5] was 90.5%. It also gave a viability, T/C [6] of 86.2%, a viability, T/C [7] of 96.5% and a viability, T/C [8] of 91.2%. For the same molecule, the viability, T/C (second compound 0.316 µM, first compound 3.16 µM) was 107%, the viability, T/C (second compound 0.316 µM, first compound 10 µM) was 84.1% and the viability, T/C [9] was 93.9%. The viability, T/C [10] was 89%, the viability, T/C [11] was 91.2% and the viability, T/C [12] was 93%. For the same molecule, the viability, T/C (second compound 1 µM, first compound 3.16 µM) was 92.8%, the viability, T/C (second compound 1 µM, first compound 10 µM) was 77.6% and the viability, T/C [13] was 83.8%. It also gave a viability, T/C [14] of 91.5%, a viability, T/C [15] of 90.9% and a viability, T/C [16] of 93.2%. The viability, T/C (second compound 3.16 µM, first compound 3.16 µM) was 101%, the viability, T/C (second compound 3.16 µM, first compound 10 µM) was 78.1% and the viability, T/C [17] was 91.3%. For the same molecule, the viability, T/C [18] was 94.1%, the viability, T/C [19] was 105% and the viability, T/C [20] was 87%. For the same molecule, the viability, T/C (second compound 10 µM, first compound 3.16 µM) was 91.7% and the viability, T/C (second compound 10 µM, first compound 10 µM) was 81.6%.
COc1c(OCCCN2CCOCC2)ccc2c3n(c(=NC(=O)c4cnc(N)nc4)nc12)CCN3 + Cc1c(S(C)(=O)=O)c(-c2cc(F)cc(N3CCN(c4ccc(NS(=O)(=O)c5ccc(NC(CCN6CCC(C(=O)OCCCP(=O)(O)O)CC6)CSc6ccccc6)c(S(=O)(=O)C(F)(F)F)c5)cc4)CC3)c2)c(-c2ccc(Cl)cc2)n1C(C)C showed an IC50 (second compound 0.1 µM) of 48.5 nM, an IC50 (second compound 0.316 µM) of 43.8 nM and an IC50 (second compound 1 µM) of 47.9 nM. The IC50 (second compound 3.16 µM) was 42 nM, the IC50 (second compound 10 µM) was 45.3 nM and the viability, T/C [21] was 96.5%. For the same molecule, the viability, T/C [22] was 84.5%, the viability, T/C [1] was 63.5% and the viability, T/C [2] was 28.3%. It also gave a viability, T/C [3] of 16%, a viability, T/C [4] of 8.08% and a viability, T/C [23] of 88%. For the same molecule, the viability, T/C [24] was 76.6%, the viability, T/C [5] was 59.1% and the viability, T/C [6] was 29.7%. It also gave a viability, T/C [7] of 15.3%, a viability, T/C [8] of 8.05% and a viability, T/C [25] of 83.7%. For the same molecule, the viability, T/C [26] was 75.5%, the viability, T/C [9] was 61.9% and the viability, T/C [10] was 30.4%. The viability, T/C [11] was 14.9%, the viability, T/C [12] was 8.15% and the viability, T/C [27] was 77.5%. It also gave a viability, T/C [28] of 77.5%, a viability, T/C [13] of 54.9% and a viability, T/C [14] of 30.1%. It also gave a viability, T/C [15] of 14.3%, a viability, T/C [16] of 8.66% and a viability, T/C [29] of 84.2%. For the same molecule, the viability, T/C [30] was 87.7%, the viability, T/C [17] was 55.6% and the viability, T/C [18] was 30.6%. The viability, T/C [19] was 15.8% and the viability, T/C [20] was 7.09%.
NC(=O)C(=Cn1cnc(-c2cc(C(F)(F)F)cc(C(F)(F)F)c2)n1)c1cncnc1 + Cc1c(S(C)(=O)=O)c(-c2cc(F)cc(N3CCN(c4ccc(NS(=O)(=O)c5ccc(NC(CCN6CCC(C(=O)OCCCP(=O)(O)O)CC6)CSc6ccccc6)c(S(=O)(=O)C(F)(F)F)c5)cc4)CC3)c2)c(-c2ccc(Cl)cc2)n1C(C)C gave an IC50 (second compound 0.1 µM) of 30.5 nM, an IC50 (second compound 0.316 µM) of 37.3 nM and an IC50 (second compound 1 µM) of 31.5 nM. It also gave an IC50 (second compound 3.16 µM) of 29.6 nM, an IC50 (second compound 10 µM) of 26.1 nM and a viability, T/C (second compound 0.1 µM, first compound 0.000949 µM) of 98.5%. It also gave a viability, T/C (second compound 0.1 µM, first compound 0.003 µM) of 93.8%, a viability, T/C (second compound 0.1 µM, first compound 0.00949 µM) of 74.5% and a viability, T/C (second compound 0.1 µM, first compound 0.03 µM) of 53.2%. For the same molecule, the viability, T/C (second compound 0.1 µM, first compound 0.0949 µM) was 22%, the viability, T/C (second compound 0.1 µM, first compound 0.3 µM) was 11% and the viability, T/C (second compound 0.316 µM, first compound 0.000949 µM) was 78.1%. It also gave a viability, T/C (second compound 0.316 µM, first compound 0.003 µM) of 82.4%, a viability, T/C (second compound 0.316 µM, first compound 0.00949 µM) of 70% and a viability, T/C (second compound 0.316 µM, first compound 0.03 µM) of 58%. The viability, T/C (second compound 0.316 µM, first compound 0.0949 µM) was 23%, the viability, T/C (second compound 0.316 µM, first compound 0.3 µM) was 8.76% and the viability, T/C (second compound 1 µM, first compound 0.000949 µM) was 83.4%. It also gave a viability, T/C (second compound 1 µM, first compound 0.003 µM) of 74%, a viability, T/C (second compound 1 µM, first compound 0.00949 µM) of 76.6% and a viability, T/C (second compound 1 µM, first compound 0.03 µM) of 49.5%. It also gave a viability, T/C (second compound 1 µM, first compound 0.0949 µM) of 23%, a viability, T/C (second compound 1 µM, first compound 0.3 µM) of 7.77% and a viability, T/C (second compound 3.16 µM, first compound 0.000949 µM) of 94.8%. It also gave a viability, T/C (second compound 3.16 µM, first compound 0.003 µM) of 82.7%, a viability, T/C (second compound 3.16 µM, first compound 0.00949 µM) of 77.5% and a viability, T/C (second compound 3.16 µM, first compound 0.03 µM) of 50.6%. The viability, T/C (second compound 3.16 µM, first compound 0.0949 µM) was 19.3%, the viability, T/C (second compound 3.16 µM, first compound 0.3 µM) was 7.61% and the viability, T/C (second compound 10 µM, first compound 0.000949 µM) was 85.6%. It also gave a viability, T/C (second compound 10 µM, first compound 0.003 µM) of 77.2%, a viability, T/C (second compound 10 µM, first compound 0.00949 µM) of 68.4% and a viability, T/C (second compound 10 µM, first compound 0.03 µM) of 49.9%. The viability, T/C (second compound 10 µM, first compound 0.0949 µM) was 19.3% and the viability, T/C (second compound 10 µM, first compound 0.3 µM) was 7.73%.
NC1CCC(NC2CC2c2ccccc2)CC1 (stereo not given) + Cc1c(S(C)(=O)=O)c(-c2cc(F)cc(N3CCN(c4ccc(NS(=O)(=O)c5ccc(NC(CCN6CCC(C(=O)OCCCP(=O)(O)O)CC6)CSc6ccccc6)c(S(=O)(=O)C(F)(F)F)c5)cc4)CC3)c2)c(-c2ccc(Cl)cc2)n1C(C)C gave an IC50 (second compound 0.1 µM) of over 100 nM, an IC50 (second compound 0.316 µM) of over 100 nM and an IC50 (second compound 1 µM) of over 100 nM. The IC50 (second compound 3.16 µM) was over 100 nM, the IC50 (second compound 10 µM) was over 100 nM and the viability, T/C (second compound 0.1 µM, first compound 0.000316 µM) was 94.6%. For the same molecule, the viability, T/C (second compound 0.1 µM, first compound 0.001 µM) was 88.8%, the viability, T/C [21] was 76.7% and the viability, T/C [22] was 75.4%. The viability, T/C [1] was 84%, the viability, T/C [2] was 77.6% and the viability, T/C (second compound 0.316 µM, first compound 0.000316 µM) was 74.4%. For the same molecule, the viability, T/C (second compound 0.316 µM, first compound 0.001 µM) was 76.5%, the viability, T/C [23] was 75.3% and the viability, T/C [24] was 70.1%. The viability, T/C [5] was 66.5%, the viability, T/C [6] was 76.1% and the viability, T/C (second compound 1 µM, first compound 0.000316 µM) was 79%. The viability, T/C (second compound 1 µM, first compound 0.001 µM) was 81.2%, the viability, T/C [25] was 73.1% and the viability, T/C [26] was 71.4%. For the same molecule, the viability, T/C [9] was 73.8%, the viability, T/C [10] was 60.3% and the viability, T/C (second compound 3.16 µM, first compound 0.000316 µM) was 81.5%. The viability, T/C (second compound 3.16 µM, first compound 0.001 µM) was 73.1%, the viability, T/C [27] was 73.9% and the viability, T/C [28] was 71.2%. For the same molecule, the viability, T/C [13] was 62.3%, the viability, T/C [14] was 65% and the viability, T/C (second compound 10 µM, first compound 0.000316 µM) was 69.6%. For the same molecule, the viability, T/C (second compound 10 µM, first compound 0.001 µM) was 69.1%, the viability, T/C [29] was 70.4% and the viability, T/C [30] was 71.3%. The viability, T/C [17] was 61.1% and the viability, T/C [18] was 58.2%.
